Data reported in patent US8815909B2, “Diaminocyclohexane compounds and uses thereof” (Bristol-Myers Squibb Company, priority 2011, dated 2014).

target: T1, human Y4 receptor (Homo sapiens, UniProt P50391); experiment: NPY4 cAMP HTRF Agonist Assay (inhibitory cAMP assay, Gi activation by Y4 agonism); assay type: cell-based; settings: second TABLE 1, R2 is Phenyl-CF3; read-out: hY4 CAMP EC50
T1 construct: expressed in transfected cells
How it was run: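 Y4 agonism read as lowered forskolin-stimulated cAMP (HTRF, 1 h detection at room temperature). Stable human Y4 CHO clone, 5000 cells/well, incubated 30 min at room temperature with compounds plus forskolin and IBMX in PBS.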

T1 sequence (P50391 whole entry): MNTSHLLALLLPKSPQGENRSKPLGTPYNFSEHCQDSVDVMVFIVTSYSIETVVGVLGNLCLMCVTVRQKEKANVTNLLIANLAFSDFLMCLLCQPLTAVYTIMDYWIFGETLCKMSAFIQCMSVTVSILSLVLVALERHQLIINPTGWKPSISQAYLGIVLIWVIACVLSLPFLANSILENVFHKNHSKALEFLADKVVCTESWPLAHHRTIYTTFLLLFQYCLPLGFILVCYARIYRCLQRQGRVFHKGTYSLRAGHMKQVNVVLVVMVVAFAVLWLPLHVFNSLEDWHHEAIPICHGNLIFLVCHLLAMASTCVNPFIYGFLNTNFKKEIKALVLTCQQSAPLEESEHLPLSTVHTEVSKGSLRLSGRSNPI

Structure (SMILES) | EC50 [nM]
CCNC(=O)c1cccc(-c2ccnc(N[C@@H]3CCCC[C@H]3N[C@H]3CCCN(c4ccc(C(F)(F)F)cc4)C3)c2)c1 [Example 138] | 9
CCCNC(=O)c1cccc(-c2ccnc(N[C@@H]3CCCC[C@H]3N[C@H]3CCCN(c4ccc(C(F)(F)F)cc4)C3)c2)c1 [Example 139] | 29
CC(=O)NCc1cccc(-c2ccnc(N[C@@H]3CCCC[C@H]3N[C@H]3CCCN(c4ccc(C(F)(F)F)cc4)C3)c2)c1 [Example 140] | 1
CCCCNC(=O)c1cccc(-c2ccnc(N[C@@H]3CCCC[C@H]3N[C@H]3CCCN(c4ccc(C(F)(F)F)cc4)C3)c2)c1 [Example 141] | 227
CCNCc1cccc(-c2ccnc(N[C@@H]3CCCC[C@H]3N[C@H]3CCCN(c4ccc(C(F)(F)F)cc4)C3)c2)c1 [Example 142] | 58
CC(C)NCc1cccc(-c2ccnc(N[C@@H]3CCCC[C@H]3N[C@H]3CCCN(c4ccc(C(F)(F)F)cc4)C3)c2)c1 [Example 143] | 107
CNCc1cccc(-c2ccnc(N[C@@H]3CCCC[C@H]3N[C@H]3CCCN(c4ccc(C(F)(F)F)cc4)C3)c2)c1 [Example 144] | 26
FC(F)(F)c1ccc(N2CCC[C@H](N[C@@H]3CCCC[C@H]3Nc3cc(-c4cccc5c4CCNC5)ccn3)C2)cc1 [Example 145] | 905
FC(F)(F)c1ccc(N2CCC[C@H](N[C@@H]3CCCC[C@H]3Nc3cc(-c4ccc5c(c4)CNCC5)ccn3)C2)cc1 [Example 146] | 726
CC(C)NC(=O)c1cccc(-c2ccnc(N[C@@H]3CCCC[C@H]3N[C@H]3CCCN(c4ccc(C(F)(F)F)cc4)C3)c2)c1 [Example 147] | 20
CC(C)CNC(=O)c1cccc(-c2ccnc(N[C@@H]3CCCC[C@H]3N[C@H]3CCCN(c4ccc(C(F)(F)F)cc4)C3)c2)c1 [Example 148] | 205
OCCc1cccc(-c2ccnc(N[C@@H]3CCCC[C@H]3N[C@H]3CCCN(c4ccc(C(F)(F)F)cc4)C3)c2)c1 [Example 149] | 30
O=C(NC1CCCC1)c1cccc(-c2ccnc(N[C@@H]3CCCC[C@H]3N[C@H]3CCCN(c4ccc(C(F)(F)F)cc4)C3)c2)c1 [Example 150] | 192
OC1(c2cccc(-c3ccnc(N[C@@H]4CCCC[C@H]4N[C@H]4CCCN(c5ccc(C(F)(F)F)cc5)C4)c3)c2)CC1 [Example 151] | 292
OCCc1ccc(-c2ccnc(N[C@@H]3CCCC[C@H]3N[C@H]3CCCN(c4ccc(C(F)(F)F)cc4)C3)c2)cc1 [Example 152] | 508
OCCCc1cccc(-c2ccnc(N[C@@H]3CCCC[C@H]3N[C@H]3CCCN(c4ccc(C(F)(F)F)cc4)C3)c2)c1 [Example 153] | 31
OC1(c2cccc(-c3cnc(N[C@@H]4CCCC[C@H]4N[C@H]4CCCN(c5ccc(C(F)(F)F)cc5)C4)o3)c2)CC1 [Example 154] | 36
CC(C)(C)c1cccc(-c2ccnc(N[C@@H]3CCCC[C@H]3N[C@H]3CCCN(c4ccc(C(F)(F)F)cc4)C3)c2)c1 [Example 155] | 235
OCCc1ccccc1-c1ccnc(N[C@@H]2CCCC[C@H]2N[C@H]2CCCN(c3ccc(C(F)(F)F)cc3)C2)c1 [Example 156] | 50
FC(F)(F)c1ccc(N2CCC[C@H](N[C@@H]3CCCC[C@H]3Nc3cc(-c4ccc5scnc5c4)ccn3)C2)cc1 [Example 157] | 194
FC(F)(F)c1ccc(N2CCC[C@H](N[C@@H]3CCCC[C@H]3Nc3cc(-c4cccc(-n5cccn5)c4)ccn3)C2)cc1 [Example 158] | 53
CN(C)c1cccc(-c2ccnc(N[C@@H]3CCCC[C@H]3N[C@H]3CCCN(c4ccc(C(F)(F)F)cc4)C3)c2)c1 [Example 159] | 239
N#Cc1cccc(-c2cnc(N[C@@H]3CCCC[C@H]3N[C@H]3CCCN(c4ccc(C(F)(F)F)cc4)C3)o2)c1 [Example 160] | 548
OCCC#Cc1ccnc(N[C@@H]2CCCC[C@H]2N[C@H]2CCCN(c3ccc(C(F)(F)F)cc3)C2)c1 [Example 161] | 31
CC(C)(O)C#Cc1ccnc(N[C@@H]2CCCC[C@H]2N[C@H]2CCCN(c3ccc(C(F)(F)F)cc3)C2)c1 [Example 162] | 546

Next, values leading:

EC50 [nM] | Structure (SMILES)
74 | OCC#Cc1ccnc(N[C@@H]2CCCC[C@H]2N[C@H]2CCCN(c3ccc(C(F)(F)F)cc3)C2)c1 [Example 163]
104 | FC(F)(F)c1ccc(N2CCC[C@H](N[C@@H]3CCCC[C@H]3Nc3cc(-c4cccc(N5CCCC5)c4)ccn3)C2)cc1 [Example 164]
38 | OCc1cc(-c2ccnc(N[C@@H]3CCCC[C@H]3N[C@H]3CCCN(c4ccc(C(F)(F)F)cc4)C3)c2)ccc1F [Example 165]
17 | OCCCC#Cc1ccnc(N[C@@H]2CCCC[C@H]2N[C@H]2CCCN(c3ccc(C(F)(F)F)cc3)C2)c1 [Example 166]
6 | C[C@H](O)c1cccc(-c2ccnc(N[C@@H]3CCCC[C@H]3N[C@H]3CCCN(c4ccc(C(F)(F)F)cc4)C3)c2)c1 [Example 167]
14 | C[C@@H](O)c1cccc(-c2ccnc(N[C@@H]3CCCC[C@H]3N[C@H]3CCCN(c4ccc(C(F)(F)F)cc4)C3)c2)c1 [Example 168]
32 | CC(C)(C)OC(=O)Nc1cccc(-c2cnc(N[C@@H]3CCCC[C@H]3N[C@H]3CCCN(c4ccc(C(F)(F)F)cc4)C3)o2)c1 [Example 169]
48 | CC(C)(O)c1cccc(-c2cnc(N[C@@H]3CCCC[C@H]3N[C@H]3CCCN(c4ccc(C(F)(F)F)cc4)C3)o2)c1 [Example 170]
142 | FC(F)(F)c1ccc(N2CCC[C@H](N[C@@H]3CCCC[C@H]3Nc3cc(-c4cn[nH]c4)ccn3)C2)cc1 [Example 171]
5 | Nc1cccc(-c2cnc(N[C@@H]3CCCC[C@H]3N[C@H]3CCCN(c4ccc(C(F)(F)F)cc4)C3)o2)c1 [Example 172]
920 | COC(=O)N(C)c1cccc(-c2ccnc(N[C@@H]3CCCC[C@H]3N[C@H]3CCCN(c4ccc(C(F)(F)F)cc4)C3)c2)c1 [Example 173]
363 | CC(=O)N(C)c1cccc(-c2ccnc(N[C@@H]3CCCC[C@H]3N[C@H]3CCCN(c4ccc(C(F)(F)F)cc4)C3)c2)c1 [Example 174]
2 | CNC(=O)Cc1cccc(-c2ccnc(N[C@@H]3CCCC[C@H]3N[C@H]3CCCN(c4ccc(C(F)(F)F)cc4)C3)c2)c1 [Example 175]
579 | FC(F)(F)c1ccc(N2CCC[C@H](N[C@@H]3CCCC[C@H]3Nc3ncc(-c4ccccc4)cn3)C2)cc1 [Example 176]
781 | FC(F)(F)Oc1cccc(-c2cnc(N[C@@H]3CCCC[C@H]3N[C@H]3CCCN(c4ccc(C(F)(F)F)cc4)C3)nc2)c1 [Example 177]
2 | NC(=O)c1cccc(-c2cnc(N[C@@H]3CCCC[C@H]3N[C@H]3C[C@@H]4C[C@H]3N(c3ccc(C(F)(F)F)cc3)C4)o2)c1 [Example 178]
7 | NC(=O)c1cccc(-c2ccnc(N[C@@H]3CCCC[C@H]3N[C@H]3C[C@@H]4C[C@H]3N(c3ccc(C(F)(F)F)cc3)C4)c2)c1 [Example 179]
54 | FC(F)(F)c1ccc(N2CCC[C@H](N[C@@H]3CCCC[C@H]3NC3=NOC(c4ccccc4)C3)C2)cc1 (stereo partly drawn) [Example 180]
126 | FC(F)(F)Oc1ccc(-c2cnc(N[C@@H]3CCCC[C@H]3N[C@H]3C[C@@H]4C[C@H]3N(c3ccc(C(F)(F)F)cc3)C4)o2)cc1 [Example 181]
258 | FC(F)(F)c1ccc(N2CCC[C@H](N[C@@H]3CCCC[C@H]3Nc3ncc(Br)cn3)C2)cc1 [Example 182]
